Experiments:
[1] = tested on: HT29 colon cancer; experiment: Signal intensity change in tissues of tumor-bearing (HT29 colon cancer) nude mice, Bruker Biospec 2.35 Tesla, MSSE; format: in vivo, nude mice (Balb/c nu/nu); conditions: 0.05 mmol/kg i.v.; for enhancement, HT29 / enhancement, Kidneys / enhancement, Liver / enhancement, Muscle: time 0 = 100
Experimental: On a Bruker Biospec nuclear spin tomograph (2.35 Tesla), the al intensity change in various tissues of tumor-bearing (HT29 colon cancer) nude mice (Balb/c nu/nu) was studied after i.v administration of 0.05 mmol/kg of the compound according to example 1c (10 mmol/l, pH 7.2; 37° C. in bidistilled water). The measurement takes place with a multi slice single echo sequence (MSSE). Imaging parameters: TR: 400 ms, TE: 30 ms, layer thickness: 4 mm, number of averages: 4/slice, matrix 256^2. […]

[2] = tested on: DMBA-induced breast cancer; experiment: Signal intensity change in tissues of rats with DMBA-induced breast cancer, Bruker Biospec 2.35 Tesla, MSVE; format: in vivo; design: key to enhancement, Tumor / enhancement, Liver / enhancement, Kidneys / enhancement, Muscle: signal intensity relative to an internal standard
Experimental: b) On a Bruker Biospec nuclear spin tomograph (2.35 Tesla), the signal intensity change in various tissues of rats with a DMBA-induced breast cancer was studied after i.v. administration of 0.05 mmol/kg or 0.1 mmol of the compound of example 1c (20 mmol/l, pH 7.2; 37° C. in bidistilled water). The measurements took place with a multi slice variable echo sequence (MSVE). Imaging parameters: TR: 400 ms, TE: 25 ms, layer thickness: 4 mm, number of averages: 4/slice, matrix 256^2.
After a preliminary image, 0.05 mmol/kg or 0.1 mmol/kg of the substance was administered and the signal intensity change (relative to an internal standard) was studied.
The ^1 H-NMR images of the DMBA-induced breast cancer after administration of 0.1 mmol/kg i.v. after 5 minutes or 3 or 24 hours p.i. are reproduced in FIG. 1.

N,N'-Bis[9-carboxylato-2,5,8-tris(carboxylatomethyl)-2,5,8-triazanonyl-carbamoyl]-mesoporphyrin-IX-13,17-diamide, digadolinium complex, disodium salt [Example 1c]
signal intensity change, tumor and muscle [1]: only a slight change
enhancement, HT29 ([1]; 5 min): 116 ± 19
enhancement, Kidneys ([1]; 5 min): 185 ± 34
enhancement, Liver ([1]; 5 min): 122 ± 31
enhancement, Muscle ([1]; 5 min): 119 ± 8
signal intensity change, liver tissue ([1]; 5 minutes p.i.): marked signal intensity increase
enhancement, HT29 ([1]; 60 min): 128 ± 21
enhancement, Kidneys ([1]; 60 min): 240 ± 26
enhancement, Liver ([1]; 60 min): 164 ± 22
enhancement, Muscle ([1]; 60 min): 129 ± 7
enhancement, HT29 ([1]; 90 min): 148 ± 22
enhancement, Kidneys ([1]; 90 min): 248 ± 18
enhancement, Liver ([1]; 90 min): 202 ± 37
enhancement, Muscle ([1]; 90 min): 143 ± 21
enhancement, HT29 ([1]; 120 min): 155 ± 30
enhancement, Kidneys ([1]; 120 min): 246 ± 6
enhancement, Liver ([1]; 120 min): 194 ± 33
enhancement, Muscle ([1]; 120 min): 147 ± 17
enhancement, HT29 ([1]; 150 min): 167 ± 29
enhancement, Kidneys ([1]; 150 min): 225 ± 12
enhancement, Liver ([1]; 150 min): 197 ± 17
enhancement, Muscle ([1]; 150 min): 146 ± 8
enhancement, HT29 ([1]; 180 min): 161 ± 22
enhancement, Kidneys ([1]; 180 min): 212 ± 16
enhancement, Liver ([1]; 180 min): 212 ± 9
enhancement, Muscle ([1]; 180 min): 157 ± 8
signal intensity change, kidneys ([2]; 0.05 mmol/kg i.v.): stronger signal intensity change
signal intensity change, muscle ([2]; 0.05 or 0.1 mmol/kg i.v., up to 24 hours p.i.): only a slight change
enhancement, Kidneys ([2]; 1 min, 0.1 mmol/kg i.v.): 1.16
enhancement, Liver ([2]; 1 min, 0.1 mmol/kg i.v.): 1.55
enhancement, Muscle ([2]; 1 min, 0.1 mmol/kg i.v.): 1.46
enhancement, Tumor ([2]; 1 min, 0.1 mmol/kg i.v.): 2.48
enhancement, Kidneys ([2]; 5 min, 0.05 mmol/kg i.v.): 2.57
enhancement, Liver ([2]; 5 min, 0.05 mmol/kg i.v.): 1.48
enhancement, Muscle ([2]; 5 min, 0.05 mmol/kg i.v.): 1.34
enhancement, Tumor ([2]; 5 min, 0.05 mmol/kg i.v.): 1.88
signal intensity change, liver tissue and tumors ([2]; 5 minutes p.i., 0.05 or 0.1 mmol/kg i.v.): marked signal intensity increase
enhancement, Kidneys ([2]; 15 min, 0.05 mmol/kg i.v.): 2.81
enhancement, Liver ([2]; 15 min, 0.05 mmol/kg i.v.): 1.29
enhancement, Muscle ([2]; 15 min, 0.05 mmol/kg i.v.): 1.26
enhancement, Tumor ([2]; 15 min, 0.05 mmol/kg i.v.): 1.97
enhancement, Kidneys ([2]; 15 min, 0.1 mmol/kg i.v.): 2.36
enhancement, Liver ([2]; 15 min, 0.1 mmol/kg i.v.): 1.61
enhancement, Muscle ([2]; 15 min, 0.1 mmol/kg i.v.): 1.30
enhancement, Tumor ([2]; 15 min, 0.1 mmol/kg i.v.): 2.40
enhancement, Kidneys ([2]; 26 min, 0.1 mmol/kg i.v.): 2.33
enhancement, Liver ([2]; 26 min, 0.1 mmol/kg i.v.): 1.45
enhancement, Muscle ([2]; 26 min, 0.1 mmol/kg i.v.): 1.37
enhancement, Tumor ([2]; 26 min, 0.1 mmol/kg i.v.): 2.41
enhancement, Kidneys ([2]; 30 min, 0.05 mmol/kg i.v.): 2.94
enhancement, Liver ([2]; 30 min, 0.05 mmol/kg i.v.): 1.42
enhancement, Muscle ([2]; 30 min, 0.05 mmol/kg i.v.): 1.22
enhancement, Tumor ([2]; 30 min, 0.05 mmol/kg i.v.): 1.71
enhancement, Kidneys ([2]; 40 min, 0.1 mmol/kg i.v.): 2.38
enhancement, Liver ([2]; 40 min, 0.1 mmol/kg i.v.): 1.51
enhancement, Muscle ([2]; 40 min, 0.1 mmol/kg i.v.): 1.23
enhancement, Tumor ([2]; 40 min, 0.1 mmol/kg i.v.): 2.34
enhancement, Kidneys ([2]; 45 min, 0.05 mmol/kg i.v.): 2.84
enhancement, Liver ([2]; 45 min, 0.05 mmol/kg i.v.): 1.49
enhancement, Muscle ([2]; 45 min, 0.05 mmol/kg i.v.): 1.12
enhancement, Tumor ([2]; 45 min, 0.05 mmol/kg i.v.): 1.71
enhancement, Kidneys ([2]; 60 min, 0.05 mmol/kg i.v.): 2.53
enhancement, Liver ([2]; 60 min, 0.05 mmol/kg i.v.): 1.52
enhancement, Muscle ([2]; 60 min, 0.05 mmol/kg i.v.): 1.10
enhancement, Tumor ([2]; 60 min, 0.05 mmol/kg i.v.): 1.50
enhancement, Kidneys ([2]; 60 min, 0.1 mmol/kg i.v.): 1.86
enhancement, Liver ([2]; 60 min, 0.1 mmol/kg i.v.): 1.36
enhancement, Muscle ([2]; 60 min, 0.1 mmol/kg i.v.): 1.23
enhancement, Tumor ([2]; 60 min, 0.1 mmol/kg i.v.): 2.34
enhancement, Kidneys ([2]; 71 min, 0.1 mmol/kg i.v.): 1.66
enhancement, Liver ([2]; 71 min, 0.1 mmol/kg i.v.): 1.62
enhancement, Muscle ([2]; 71 min, 0.1 mmol/kg i.v.): 1.17
enhancement, Tumor ([2]; 71 min, 0.1 mmol/kg i.v.): 2.36
enhancement, Kidneys ([2]; 75 min, 0.05 mmol/kg i.v.): 2.47
enhancement, Liver ([2]; 75 min, 0.05 mmol/kg i.v.): 1.50
enhancement, Muscle ([2]; 75 min, 0.05 mmol/kg i.v.): 1.04
enhancement, Tumor ([2]; 75 min, 0.05 mmol/kg i.v.): 1.71
enhancement, Kidneys ([2]; 85 min, 0.1 mmol/kg i.v.): 1.64
enhancement, Liver ([2]; 85 min, 0.1 mmol/kg i.v.): 1.48
enhancement, Muscle ([2]; 85 min, 0.1 mmol/kg i.v.): 1.32
enhancement, Tumor ([2]; 85 min, 0.1 mmol/kg i.v.): 2.39
enhancement, Kidneys ([2]; 90 min, 0.05 mmol/kg i.v.): 2.15
enhancement, Liver ([2]; 90 min, 0.05 mmol/kg i.v.): 1.53
enhancement, Muscle ([2]; 90 min, 0.05 mmol/kg i.v.): 1.11
enhancement, Tumor ([2]; 90 min, 0.05 mmol/kg i.v.): 1.62
enhancement, Kidneys ([2]; 105 min, 0.05 mmol/kg i.v.): 2.63
enhancement, Liver ([2]; 105 min, 0.05 mmol/kg i.v.): 1.63
enhancement, Muscle ([2]; 105 min, 0.05 mmol/kg i.v.): 1.07
enhancement, Tumor ([2]; 105 min, 0.05 mmol/kg i.v.): 1.75
enhancement, Kidneys ([2]; 115 min, 0.1 mmol/kg i.v.): 2.43
enhancement, Liver ([2]; 115 min, 0.1 mmol/kg i.v.): 1.62
enhancement, Muscle ([2]; 115 min, 0.1 mmol/kg i.v.): 1.23
enhancement, Tumor ([2]; 115 min, 0.1 mmol/kg i.v.): 2.38
enhancement, Kidneys ([2]; 150 min, 0.1 mmol/kg i.v.): 2.27
enhancement, Liver ([2]; 150 min, 0.1 mmol/kg i.v.): 1.48
enhancement, Muscle ([2]; 150 min, 0.1 mmol/kg i.v.): 1.17
enhancement, Tumor ([2]; 150 min, 0.1 mmol/kg i.v.): 2.31
enhancement, Kidneys ([2]; 160 min, 0.05 mmol/kg i.v.): 2.38
enhancement, Liver ([2]; 160 min, 0.05 mmol/kg i.v.): 1.47
enhancement, Muscle ([2]; 160 min, 0.05 mmol/kg i.v.): 1.07
enhancement, Tumor ([2]; 160 min, 0.05 mmol/kg i.v.): 1.69
enhancement, Kidneys ([2]; 180 min, 0.05 mmol/kg i.v.): 2.54
enhancement, Liver ([2]; 180 min, 0.05 mmol/kg i.v.): 1.57
enhancement, Muscle ([2]; 180 min, 0.05 mmol/kg i.v.): 1.02
enhancement, Tumor ([2]; 180 min, 0.05 mmol/kg i.v.): 1.67
enhancement, Kidneys ([2]; 180 min, 0.1 mmol/kg i.v.): 2.18
enhancement, Liver ([2]; 180 min, 0.1 mmol/kg i.v.): 1.59
enhancement, Muscle ([2]; 180 min, 0.1 mmol/kg i.v.): 1.22
enhancement, Tumor ([2]; 180 min, 0.1 mmol/kg i.v.): 2.38
enhancement, Kidneys ([2]; 24 hours, 0.05 mmol/kg i.v.): 1.17
enhancement, Liver ([2]; 24 hours, 0.05 mmol/kg i.v.): 0.93
enhancement, Muscle ([2]; 24 hours, 0.05 mmol/kg i.v.): 1.07
enhancement, Tumor ([2]; 24 hours, 0.05 mmol/kg i.v.): 1.31
enhancement, Kidneys ([2]; 24 hours, 0.1 mmol/kg i.v.): 0.94
enhancement, Liver ([2]; 24 hours, 0.1 mmol/kg i.v.): 1.33
enhancement, Muscle ([2]; 24 hours, 0.1 mmol/kg i.v.): 1.15
enhancement, Tumor ([2]; 24 hours, 0.1 mmol/kg i.v.): 2.02

From patent US5849259A, “3-,8-substituted deuteroporphyrin derivatives, pharmaceutical agents containing the latter and process for their production” (priority 1992, dated 1998)
